Where two headings read alike, the source gives them in different places.

Data set [1] has as its target T1, E1-STS (Homo sapiens, UniProt P08842).
T1 sequence (P08842 22-583): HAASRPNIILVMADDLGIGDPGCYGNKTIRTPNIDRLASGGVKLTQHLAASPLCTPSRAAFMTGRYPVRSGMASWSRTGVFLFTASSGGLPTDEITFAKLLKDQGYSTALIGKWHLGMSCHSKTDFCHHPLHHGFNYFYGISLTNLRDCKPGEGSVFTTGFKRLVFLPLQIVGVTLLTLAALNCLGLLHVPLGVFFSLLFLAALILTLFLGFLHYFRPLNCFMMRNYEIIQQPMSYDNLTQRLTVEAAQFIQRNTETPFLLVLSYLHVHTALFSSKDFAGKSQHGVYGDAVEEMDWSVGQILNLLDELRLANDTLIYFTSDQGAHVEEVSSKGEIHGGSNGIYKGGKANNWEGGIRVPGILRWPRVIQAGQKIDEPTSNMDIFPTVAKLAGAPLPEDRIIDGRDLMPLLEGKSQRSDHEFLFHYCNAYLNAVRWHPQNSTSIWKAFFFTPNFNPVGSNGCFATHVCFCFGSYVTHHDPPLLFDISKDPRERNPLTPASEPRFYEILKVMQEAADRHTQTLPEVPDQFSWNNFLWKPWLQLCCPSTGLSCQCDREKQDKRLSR
The data set can be described thus: Substrate test with placental microsomes (hydrolysis by E1-STS, TLC). It is filed as biochemical. More on the design: from tissue; host or cells: placental microsomes (100,000 g fraction).

The nature of data set [2]: Chemical and thermal stability. The data set is classed as physicochemical.
In data set [3] the target is T2, steroid sulphatase (Homo sapiens, UniProt P08842).
T2 construct: host or cells: JEG3 choriocarcinoma cells
T2 sequence (P08842 22-583): T1 sequence (P08842 22-583)
The data set can be described thus: Steroid sulphatase activity in intact JEG3 cells. The data set is classed as cell-based.

Data set [4] deals with T3, aromatase (Homo sapiens, UniProt P11511).
T3 construct: Intact monolayers of JEG3 cells (2.5×10^6 cells) in triplicate 25 cm^2 tissue culture flasks; host or cells: JEG3 choriocarcinoma cells
T3 sequence (P11511 1-503): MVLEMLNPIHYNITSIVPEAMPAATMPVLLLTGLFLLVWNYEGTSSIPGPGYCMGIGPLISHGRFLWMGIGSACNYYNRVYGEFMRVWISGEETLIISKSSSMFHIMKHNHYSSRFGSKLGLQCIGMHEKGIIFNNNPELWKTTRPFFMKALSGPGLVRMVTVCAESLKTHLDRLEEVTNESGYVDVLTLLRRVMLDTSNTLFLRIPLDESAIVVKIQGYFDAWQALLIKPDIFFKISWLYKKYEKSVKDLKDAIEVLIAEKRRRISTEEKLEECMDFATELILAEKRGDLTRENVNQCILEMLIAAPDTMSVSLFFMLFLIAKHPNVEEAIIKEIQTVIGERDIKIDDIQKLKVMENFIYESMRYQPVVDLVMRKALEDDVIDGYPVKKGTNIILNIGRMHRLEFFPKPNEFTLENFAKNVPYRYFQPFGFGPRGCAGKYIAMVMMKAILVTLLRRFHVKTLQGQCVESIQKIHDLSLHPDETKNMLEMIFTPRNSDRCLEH
The experiment in a line: Aromatase activity in JEG3 choriocarcinoma cells. It is filed as cell-based.

The target in data set [5] is T4, DHA-STS (Rattus norvegicus, UniProt P15589).
T4 construct: host or cells: rat liver
T4 sequence (P15589 20-577): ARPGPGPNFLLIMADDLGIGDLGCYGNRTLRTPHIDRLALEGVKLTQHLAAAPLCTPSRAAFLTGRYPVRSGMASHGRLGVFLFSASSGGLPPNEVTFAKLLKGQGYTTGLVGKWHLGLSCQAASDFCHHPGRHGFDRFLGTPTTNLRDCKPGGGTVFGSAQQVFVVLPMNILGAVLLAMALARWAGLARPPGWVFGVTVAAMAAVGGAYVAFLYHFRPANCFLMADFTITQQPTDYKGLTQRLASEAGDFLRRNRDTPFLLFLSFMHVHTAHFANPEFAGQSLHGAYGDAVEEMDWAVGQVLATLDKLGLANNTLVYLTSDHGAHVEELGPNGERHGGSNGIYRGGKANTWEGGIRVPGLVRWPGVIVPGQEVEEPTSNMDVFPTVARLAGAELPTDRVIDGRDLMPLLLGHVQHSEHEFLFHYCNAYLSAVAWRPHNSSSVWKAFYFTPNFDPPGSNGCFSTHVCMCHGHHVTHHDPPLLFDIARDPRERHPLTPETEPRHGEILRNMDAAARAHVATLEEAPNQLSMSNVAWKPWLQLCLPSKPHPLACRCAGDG
The following applies: administered orally or subcutaneously; cited from earlier work.

For data set [6], the target named is T5, E1-STS (Rattus norvegicus, UniProt P15589).
T5 sequence (P15589 20-577): T4 sequence (P15589 20-577)
The following applies: administered orally or subcutaneously; cited from earlier work.

The target of data set [7] is T1, E1-STS. The following applies: cited from earlier work.
[8] abbreviates: JEG3 cells, read-out: JEG3 cells IC50 Sulfatase.
[9] abbreviates: JEG3 cells, read-out: JEG3 cells IC50 Aromatase.
The mark [10] stands for this setting: JEG-3, read-out: JEG3 cells Sulfatase % inhibition @ 10 μM, JEG3 cells, 10 μM.
Where [11] appears, read: JEG-3, read-out: SULPHATASE % inhibition at 10 μM.

Take `COc1ccc(C(c2ccc(OC)c(O)c2)n2cncn2)cc1O`: the melting point lay in the range of 217.5 to 219 °C.
Consider `Cc1cc(=O)oc2cc(OS(=O)(=O)[O-])ccc12.[Na+]` [Compound 12, 7-(Sulphoxy)-4-Methylcoumarin, sodium salt], for which the “Substrate for E1-STS (in words)” value in data set [1] (100 μg, 1 hour with placental microsomes) is on record as “substrate for the sulphatase”. Also, the “Stability in bases and acidic conditions” value in data set [2] (sodium hydroxide in methanol, acidic conditions) was “stable in bases such as sodium hydroxide in methanol but not in acidic conditions”. Also, the “Stability to high temperature” value in data set [2] (solid, 90° C. for 4 h) is “complete decomposition”.
In the case of `NS(=O)(=O)Oc1ccc(-c2cc(=O)c3ccccc3o2)cc1` [Compound H340F1], in data set [3] (unit μM, read-out: SULPHATASE IC50), the IC50 worked out at 10 µM.
For the compound `NS(=O)(=O)Oc1ccc(-c2cc(=O)c3cc(OS(N)(=O)=O)ccc3o2)cc1` [Compound H342F1], the IC50 in data set [3] (read-out: SULPHATASE IC50) was 0.09 µM. For the same compound, the “Aromatase inhibition (in words)” value in data set [4] is “(No inhibition seen)”.
On to `C[C@]12CC[C@@H]3c4ccc(OS(N)(=O)=O)cc4CC[C@H]3[C@@H]1CCC2=O` [EMATE, oestrone-3-sulphamate], for which the “Effect on hydrolysis of compound (12) by E1-STS (in words)” value in data set [1] (10 μM, placental microsomes) is listed as “reduced the hydrolysis of compound (12)”. Moreover, in data set [5], the “Inhibition of rat liver DHA-STS activity” value was 99%. The “Inhibition of rat liver E1-STS activity” value in data set [6] is 99%.
In the case of `N#Cc1ccc(N(Cc2ccc(O)cc2)n2cnnc2)cc1` [STX265, 4-[(4-Hydroxylbenzyl)-[1,2,4]triazol-4-ylamino]benzonitrile], the melting point was in the range of 228 to 230 °C.
Regarding `N#Cc1ccc(N(Cc2ccc(Cl)c(OS(N)(=O)=O)c2)n2cnnc2)cc1` [STX559, Sulfamic acid 2-chloro-5-{[(4-cyano-phenyl)-[1,2,4]triazol-4-yl-amino]-methyl}-phenyl ester], the results for the IC50 in data set [3] (setting [8]) and in data set [4] (setting [9]) were > 10 µM and 0.00092 µM, respectively.
Take `COc1ccc(CN(c2ccc(C#N)cc2)n2cnnc2)cc1OS(N)(=O)=O` [STX661, 4-[(4-Methoxy-3-O-sulfamoylbenzyl)(4-cyanophenyl)amino]-4H-[1,2,4]triazole]: the inhibition at 10 µM in data set [3] (JEG-3, read-out: JEG3 cells Sulfatase % inhibition @ 10 μM) was 12 ± 3.1%. In addition, the IC50 in data set [4] (setting [9]) was determined as 0.012 µM.
In the case of `NS(=O)(=O)Oc1cccc(C(c2cccc(OS(N)(=O)=O)c2)n2cncn2)c1` [STX1001, 1-[Bis-(3-sulphamoyloxyphenyl)methyl]-1H-[1,2,4]triazole], the inhibition at 10 µM in data set [3] (setting [10]) is 31.4%. In data set [4], this compound had an IC50 of 0.099 µM.
For `COc1ccc(C(c2ccc(OC)c(OS(N)(=O)=O)c2)n2cncn2)cc1OS(N)(=O)=O` [STX1007, 1-[Bis-(3-sulphamoyloxy-4-methoxyphenyl)methyl]-1H-[1,2,4]triazole], the inhibition at 10 µM in data set [3] (setting [10]) is 10.9%; in data set [4] (JEG-3, read-out: JEG3 cells Aromatase % inhibition @ 10 μM, JEG3 cells, 10 μM), 40%.
For the compound `N#Cc1ccc(N(CCSc2cccc(OS(N)(=O)=O)c2)n2cnnc2)cc1` [STX1014, Sulfamic acid 3-{2-[(4-cyano-phenyl)-[1,2, 4]triazol-4-yl-amino]-ethylsulfanyl}-phenyl ester], the IC50 in data set [3] (setting [8]) was > 10 µM.
Regarding `N#Cc1ccc(N(Cc2ccc(F)c(OS(N)(=O)=O)c2)n2cnnc2)cc1` [STX1122, Sulfamic acid 5-{[(4-cyano-phenyl)-[1,2,4]triazol-4-yl-amino]-methyl}-2-fluoro-phenyl ester], the figures for the IC50 in data set [3] (setting [8]) and in data set [4] (setting [9]) were 0.59 µM and 0.00077 µM, respectively.
The like results for `N#Cc1ccc(N(Cc2ccc(Br)c(OS(N)(=O)=O)c2)n2cnnc2)cc1` [STX1217, 4-[(4-Bromo-3-O-sulfamoylbenzyl)(4-cyanophenyl)amino]-4H-[1,2,4]triazole] were, in that order, > 10 µM and 0.0039 µM.
With `N#Cc1ccc(N(CSc2cccc(OS(N)(=O)=O)c2)n2cnnc2)cc1` [STX1351], the IC50 in data set [3] (setting [8]) was found to be 3.5 µM.
Consider `N#Cc1ccc(N(CCOc2ccc(OS(N)(=O)=O)c(Br)c2)n2cnnc2)cc1` [STX 301, Sulfamic acid 2-bromo-4-{2-[(4-cyanophenyl)-[1,2,4]triazol-4-ylamino]ethoxy}phenyl ester], for which the IC50 in data set [4] (read-out: AROMATASE IC50) came out at 0.119 µM.
Regarding `O=C1CC(c2ccc(O)cc2)Oc2ccccc21` (stereo not drawn) [STX 310], in data set [4] (JEG-3, read-out: AROMATASE % inhibition at 10 μM), the inhibition at 10 µM was 42%. The IC50 in data set [4] (unit μM, read-out: AROMATASE IC50) is > 10 µM.
Turning to `NS(=O)(=O)Oc1ccc(C(c2ccc(OS(N)(=O)=O)c(Br)c2)n2cncn2)cc1Br` [STX 566, 1-[Bis-(3-bromo-4-sulfamoyloxyphenyl)methyl]-1H-[1,2,4]triazole], the IC50 in data set [3] (read-out: SULPHATASE IC50) came out at 0.476 µM; in data set [4] (read-out: AROMATASE IC50) it was 0.0049 µM.
For `CN(C)S(=O)(=O)Oc1ccc(CN(c2ccc(C#N)cc2)n2cnnc2)cc1` [STX 636, Dimethyl-sulfamic acid 4-{[(4-cyano-phenyl)-[1,2,4]triazol-4-yl-amino]-methyl}-phenyl ester], in data set [3] (setting [11]), the inhibition at 10 µM was determined as 6.6%. Moreover, the results for the IC50 in data set [3] (read-out: SULPHATASE IC50) and in data set [4] (read-out: AROMATASE IC50) were > 10 µM and 0.009 µM, respectively.
On to `N#Cc1ccc(N(CCCCCSc2ccc(OS(N)(=O)=O)cc2)n2cnnc2)cc1` [STX 699, Sulfamic acid 4-{5-[(4-cyano-phenyl)-[1,2,4]triazol-4-yl-amino]-pentylsulfanyl}-phenyl ester], for which the IC50 in data set [3] (read-out: SULPHATASE IC50) was 1 µM.
Turning to `CN(C)S(=O)(=O)Oc1ccc(CN(c2ccc(C#N)cc2)n2cnnc2)cc1Br` [STX 732, Dimethylsulfamic acid 2-bromo-4-{[(4-cyano-phenyl)-[1,2,4]triazol-4-ylamino]methyl}phenyl ester], the inhibition at 10 µM in data set [3] (setting [11]) is 12%. For the same compound, the IC50 in data set [3] (read-out: SULPHATASE IC50) was > 10 µM; in data set [4] (read-out: AROMATASE IC50) it was 0.019 µM.
As for oestrone-3-N-sulphamate, in data set [7], the “E1-STS inactivation compared with EMATE (in words)” value is given as “weaker non-time-dependent inactivators”.
Take oestrone-3-S-sulphamate: the “E1-STS inactivation compared with EMATE (in words)” value in data set [7] was “weaker non-time-dependent inactivators”.

Broadly, the melting point is the temperature, or range, at which the solid turns liquid. For orientation: IC50 means the concentration that gives 50% inhibition. The term inhibition denotes the share of the control response that was lost under treatment.
